Measured values taken from PubChem BioAssay AID1919006 (Molecular Pharmacology Branch, DTP, NCI, 2023).
Values joined by “and” are separate entries in the source; they are usually repeats but may differ in a detail not shown here. Identical values can stand only once.

Test system: 885512-296-R-J2-PDC complex spheroid growth, % test/control
Experiment: Anticancer human tumor 885512-296-R-J2-PDC patient-derived breast carcinoma cell line growth inhibition [AhR]
Details: for viability, T/C: stronger effect = lower value
Method in brief: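 Agents were dosed in half-log steps down from roughly clinical Cmax, or from 10 microM where Cmax was unknown, alone and with AhR antagonists. Read-out: percent test/control growth of tumor spheroids containing HUVEC and MSC stromal cells.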

[1] = curve of first compound, second compound 0.1 µM
[2] = curve of first compound, second compound 0.316 µM
[3] = curve of first compound, second compound 1 µM
[4] = curve of first compound, second compound 3.16 µM
[5] = curve of first compound, second compound 10 µM
[6] = second compound 0.1 µM, first compound 0.0316 µM
[7] = second compound 0.1 µM, first compound 0.1 µM
[8] = second compound 0.316 µM, first compound 0.0316 µM
[9] = second compound 0.316 µM, first compound 0.1 µM
[10] = second compound 1 µM, first compound 0.0316 µM
[11] = second compound 1 µM, first compound 0.1 µM
[12] = second compound 3.16 µM, first compound 0.0316 µM
[13] = second compound 3.16 µM, first compound 0.1 µM
[14] = second compound 10 µM, first compound 0.0316 µM
[15] = second compound 10 µM, first compound 0.1 µM
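Note: spheroids exposed to compounds for seven days.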

`Nc1ccccc1NC(=O)c1ccc(CNC(=O)OCc2cccnc2)cc1` + Cc1ccccc1N=Nc1ccc(NC(=O)c2ccnn2C)c(C)c1 was tested, and the IC50 [1] was 763 nM, the IC50 [2] was 764 nM and the IC50 [3] was 958 nM. The IC50 [4] was 713 nM, the IC50 [5] was < 31.6 nM and the viability, T/C [6] was 95.5%. For the same molecule, the viability, T/C [7] was 89.5%, the viability, T/C (second compound 0.1 µM, first compound 0.316 µM) was 64.3% and the viability, T/C (second compound 0.1 µM, first compound 1 µM) was 43.7%. The viability, T/C (second compound 0.1 µM, first compound 3.16 µM) was 28.3%, the viability, T/C (second compound 0.1 µM, first compound 10 µM) was 11.1% and the viability, T/C [8] was 92%. For the same molecule, the viability, T/C [9] was 77.7%, the viability, T/C (second compound 0.316 µM, first compound 0.316 µM) was 68.8% and the viability, T/C (second compound 0.316 µM, first compound 1 µM) was 43.1%. For the same molecule, the viability, T/C (second compound 0.316 µM, first compound 3.16 µM) was 26.5%, the viability, T/C (second compound 0.316 µM, first compound 10 µM) was 10.7% and the viability, T/C [10] was 97.7%. The viability, T/C [11] was 91.5%, the viability, T/C (second compound 1 µM, first compound 0.316 µM) was 69.5% and the viability, T/C (second compound 1 µM, first compound 1 µM) was 48.7%. The viability, T/C (second compound 1 µM, first compound 3.16 µM) was 29.2%, the viability, T/C (second compound 1 µM, first compound 10 µM) was 11.2% and the viability, T/C [12] was 75.2%. The viability, T/C [13] was 69.7%, the viability, T/C (second compound 3.16 µM, first compound 0.316 µM) was 62.3% and the viability, T/C (second compound 3.16 µM, first compound 1 µM) was 44.3%. For the same molecule, the viability, T/C (second compound 3.16 µM, first compound 3.16 µM) was 27.7%, the viability, T/C (second compound 3.16 µM, first compound 10 µM) was 12.4% and the viability, T/C [14] was 49.4%. For the same molecule, the viability, T/C [15] was 45.1%, the viability, T/C (second compound 10 µM, first compound 0.316 µM) was 44.5% and the viability, T/C (second compound 10 µM, first compound 1 µM) was 32.5%. The viability, T/C (second compound 10 µM, first compound 3.16 µM) was 23.5% and the viability, T/C (second compound 10 µM, first compound 10 µM) was 12.8%.
With `Cn1ncnc1C1c2n[nH]c(=O)c3cc(F)cc(c23)NC1c1ccc(F)cc1` (stereo unspecified) + Cc1cncc(-c2nc(NCCc3c[nH]c4ccccc34)c3ncn(C(C)C)c3n2)c1 the IC50 [1] was > 100 nM, the IC50 [2] was > 100 nM and the IC50 [3] was > 100 nM. For the same molecule, the IC50 [4] was 35.2 nM, the IC50 [5] was < 0.316 nM and the viability, T/C (second compound 0.1 µM, first compound 0.000316 µM) was 116%. For the same molecule, the viability, T/C (second compound 0.1 µM, first compound 0.001 µM) was 112%, the viability, T/C (second compound 0.1 µM, first compound 0.00316 µM) was 99.8% and the viability, T/C (second compound 0.1 µM, first compound 0.01 µM) was 99.1%. The viability, T/C [6] was 82.4%, the viability, T/C [7] was 56.2% and the viability, T/C (second compound 0.316 µM, first compound 0.000316 µM) was 120%. For the same molecule, the viability, T/C (second compound 0.316 µM, first compound 0.001 µM) was 108%, the viability, T/C (second compound 0.316 µM, first compound 0.00316 µM) was 105% and the viability, T/C (second compound 0.316 µM, first compound 0.01 µM) was 87.4%. For the same molecule, the viability, T/C [8] was 76%, the viability, T/C [9] was 53.5% and the viability, T/C (second compound 1 µM, first compound 0.000316 µM) was 87.1%. The viability, T/C (second compound 1 µM, first compound 0.001 µM) was 99.5%, the viability, T/C (second compound 1 µM, first compound 0.00316 µM) was 79.4% and the viability, T/C (second compound 1 µM, first compound 0.01 µM) was 74.9%. For the same molecule, the viability, T/C [10] was 68.3%, the viability, T/C [11] was 51.8% and the viability, T/C (second compound 3.16 µM, first compound 0.000316 µM) was 55.2%. It also gave a viability, T/C (second compound 3.16 µM, first compound 0.001 µM) of 58.4%, a viability, T/C (second compound 3.16 µM, first compound 0.00316 µM) of 54.6% and a viability, T/C (second compound 3.16 µM, first compound 0.01 µM) of 54.5%. It also gave a viability, T/C [12] of 49.2%, a viability, T/C [13] of 45.7% and a viability, T/C (second compound 10 µM, first compound 0.000316 µM) of 23.8%. For the same molecule, the viability, T/C (second compound 10 µM, first compound 0.001 µM) was 21.6%, the viability, T/C (second compound 10 µM, first compound 0.00316 µM) was 21.3% and the viability, T/C (second compound 10 µM, first compound 0.01 µM) was 18.1%. It also gave a viability, T/C [14] of 22.1% and a viability, T/C [15] of 21.6%.
With `COc1ccc([C@@H](O)c2cc(-c3ncnc4cc(N5CCOCC5)ccc34)c(F)cc2Cl)nn1` the viability, T/C (compound 0.0316 µM) was 94.6% and 87.4% and 102%, the viability, T/C (compound 0.1 µM) was 106% and 92.4% and 99.4% and the viability, T/C (compound 0.316 µM) was 89.7% and 96.4% and 93.8%. For the same molecule, the viability, T/C (compound 1 µM) was 92.1% and 84% and 75.6%, the viability, T/C (compound 3.16 µM) was 72.1% and 75.7% and 68.1% and the viability, T/C (compound 10 µM) was 46% and 46.8% and 45.7%. The IC50 (curve of compound) was 8490 nM and 8770 nM and 8080 nM.
`O=C(C=Cc1cccc(S(=O)(=O)Nc2ccccc2)c1)NO` was tested, and the viability, T/C (compound 0.0316 µM) was 90.3% and 90% and 85.2%, the viability, T/C (compound 0.1 µM) was 86.3% and 84.5% and 83.5% and the viability, T/C (compound 0.316 µM) was 59.8% and 62.8% and 69.6%. The viability, T/C (compound 1 µM) was 45.6% and 39% and 44.7%, the viability, T/C (compound 3.16 µM) was 26.5% and 27.6% and 33.8% and the viability, T/C (compound 10 µM) was 10.4% and 6.72% and 10.9%. The IC50 (curve of compound) was 725 nM and 670 nM and 991 nM.
`CC[C@@]1(O)C(=O)OCc2c1cc1n(c2=O)Cc2cc3c(CN(C)C)c(O)ccc3nc2-1` was tested, and the viability, T/C (compound 0.000316 µM) was 105% and 92.5% and 101%, the viability, T/C (compound 0.001 µM) was 101% and 96.7% and 108% and the viability, T/C (compound 0.00316 µM) was 65.5% and 69.2% and 88%. For the same molecule, the viability, T/C (compound 0.01 µM) was 31.4% and 22.4% and 59.5%, the viability, T/C (compound 0.0316 µM) was 6.59% and 7.5% and 7.58% and the viability, T/C (compound 0.1 µM) was 6.75% and 6.73% and 5.44%. The IC50 (curve of compound) was 5.36 nM and 5.11 nM and 11.7 nM.
